Results: patent US7851637B2, “Compounds and methods for inhibiting the interaction of BCL proteins with binding partners” (Infinity Pharmaceuticals, Inc., priority 2004, dated 2010)
Read-outs that look alike come from different tables or passages of the source.

Experiments:
[1] = tested on: RL Human Follicular Lymphoma Cell Line; experiment: Alamar blue cytotoxicity assay in RL cells; format: cell-based; conditions: Homo sapiens, 72 h incubation, read-out: Bcl RL Alamar Blue IC50
Procedure, shortened: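 Compounds tested at 29 uM to 0.013 uM final (0.3% DMSO) on 30,000 RL cells per well. After 72 h at 37 C, 5% CO2, viability read with Alamar blue.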

[2] = tested on: Human Pancreatic Cancer Cell Line Panc1; experiment: Cell death assay (propidium iodide/Hoechst) in Panc1 cells with or without camptothecin; format: cell-based; conditions: 72 hours, % cell death by propidium iodide/Hoechst
Procedure, shortened: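 Panc1 cells, 10,000/well, exposed 72 h at 37 C to compound (29 uM to 0.13 uM, 0.3% DMSO) with or without 3 uM camptothecin. Propidium iodide and Hoechst staining imaged by fluorescence microscopy; % cell death = PI-stained/Hoechst-stained cells × 100.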

Bcl-xL = Bcl-xL (Homo sapiens, UniProt Q07817); experiment: Bcl-xL binding affinity analysis (fluorescence polarization binding assay); set-up: scale not given here
Sequence of Bcl-xL (Q07817 whole entry): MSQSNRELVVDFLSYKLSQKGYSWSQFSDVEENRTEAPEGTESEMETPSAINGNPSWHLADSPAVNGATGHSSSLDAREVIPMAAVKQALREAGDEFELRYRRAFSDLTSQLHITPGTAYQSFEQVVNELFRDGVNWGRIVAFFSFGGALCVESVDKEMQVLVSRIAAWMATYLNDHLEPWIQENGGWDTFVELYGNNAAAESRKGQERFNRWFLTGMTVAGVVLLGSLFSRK
Procedure, shortened: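 In vitro fluorescence polarization binding assay measuring compound binding to human Bcl-xL.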

Bcl-2 = Bcl-2 (Homo sapiens, UniProt P10415); experiment: Bcl-2 binding affinity analysis (fluorescence polarization binding assay)
Sequence of Bcl-2 (P10415 whole entry): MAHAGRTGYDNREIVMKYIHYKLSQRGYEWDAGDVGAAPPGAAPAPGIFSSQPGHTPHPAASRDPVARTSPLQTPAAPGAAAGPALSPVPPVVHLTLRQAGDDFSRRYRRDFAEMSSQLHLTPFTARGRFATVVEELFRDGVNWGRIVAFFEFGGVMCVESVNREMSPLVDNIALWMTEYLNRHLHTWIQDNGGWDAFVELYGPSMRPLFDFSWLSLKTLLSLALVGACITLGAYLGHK
Procedure, shortened: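 Binding to human Bcl-2 quantified in vitro by a fluorescence polarization assay.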

[3] = Homo sapiens, PANC-1, without camptothecin, read-out: Panc1 − Cpt IC50
[4] = with 3 uM Camptothecin, read-out: Panc1 + Cpt IC50

Row | Structure (SMILES) | IC50 [1] [nM] | IC50 [2, 3] [nM] | IC50 [2, 4] [nM] | Bcl-XL binding affinity Ki (Bcl-xL) | Ki (Bcl-2) [nM] | IC50 ([2]; without camptothecin, read-out: Panc1 − Cpt IC50) [nM]
1 | CC(C)C(CN(C)C)N(Cc1ccccc1)Cc1cccc(CN2OC(CO)C(C(C)O)C2C(=O)NC2CC3CC(C2C)C3(C)C)c1 (stereo not shown) [Compound 415] | 2000 to 5000 | > 2500 | > 2500 | ♯ | < 800 | 
2 | COc1c(CN2O[C@@H](CO)[C@@H]([C@H](C)O)[C@H]2C(=O)N[C@H]2C[C@H]3C[C@@H]([C@@H]2C)C3(C)C)cccc1-c1cccc(C(=O)N[C@@H](CN(C)C)C(C)C)c1 [Compound 484] | 2000 to 5000 | > 2500 | > 2500 | ♯ | < 800 | 
3 | CC(O)C1C(CO)ON(Cc2cccc(CN(CCN(C)C)Cc3c(F)cccc3C(F)(F)F)c2)C1C(=O)NC1CC2CC(C1C)C2(C)C (stereo not shown) [Compound 412] | < 2000 | > 2500 | 1300 to 1800 | ♯ | < 800 | 
4 | CC(O)C1C(CO)ON(Cc2cccc(CN(CCN(C)C)Cc3ccccc3I)c2)C1C(=O)NC1CC2CC(C1C)C2(C)C (stereo not shown) [Compound 394] | < 2000 | > 2500 | > 2500 | ♯ | < 800 | 
5 | Cc1cccc(CN(CCN(C)C)Cc2cccc(CN3OC(CO)C(C(C)O)C3C(=O)NC3CC4CC(C3C)C4(C)C)c2)c1 (stereo not shown) [Compound 399] | 2000 to 5000 | > 2500 | > 2500 | ♯ | < 800 | 
6 | CC(O)C1C(CO)ON(Cc2cccc(CN(CCN(C)C)Cc3cccc(-c4ccccc4)c3)c2)C1C(=O)NC1CC2CC(C1C)C2(C)C (stereo not shown) [Compound 402] | < 2000 | > 2500 | > 2500 | ♯ | < 800 | 
7 | CC(C)CC(CN(C)C)N(Cc1cccc(CN2OC(CO)C(C(C)O)C2C(=O)NC2CC3CC(C2C)C3(C)C)c1)Cc1ccccc1Cl (stereo not shown) [Compound 313] | < 2000 | 1300 to 1800 | 1300 to 1800 | ♯ | < 800 | 
8 | CC(C)CC(CN(C)C)N(Cc1cccc(CN2OC(CO)C(C(C)O)C2C(=O)NC2CC3CC(C2C)C3(C)C)c1)Cc1ccccc1Br (stereo not shown) [Compound 309] | < 2000 | > 2500 | 1300 to 1800 | ♯ | < 800 | 
9 | CC(O)C1C(CO)ON(Cc2cccc(C(=O)NC(CCc3ccccc3)CN(C)C)c2)C1C(=O)NC1CC2CC(C1C)C2(C)C (stereo not shown) [Compound 498] | > 5000 | > 2500 | > 2500 | ♯ | < 800 | 
10 | CC(O)C1C(CO)ON(Cc2cccc(CN3Cc4ccccc4C3CN(C)C)c2)C1C(=O)NC1CC2CC(C1C)C2(C)C (stereo not shown) [Compound 470] | > 5000 | > 2500 | > 2500 | ♯ | < 800 | 
11 | CCN1CCC[C@H]1CN(Cc1ccccc1)Cc1cccc(CN2O[C@@H](CO)C([C@H](C)O)[C@H]2C(=O)N[C@H]2C[C@H]3C[C@@H]([C@@H]2C)C3(C)C)c1 (stereo partly shown) [Compound 424] | < 2000 | > 2500 | 1800 to 2500 | ♯ | < 800 | 
12 | CCN(CC)CCN(Cc1ccccc1)Cc1cccc(CN2OC(CO)C(C(C)O)C2C(=O)NC2CC3CC(C2C)C3(C)C)c1 (stereo not shown) [Compound 428] | > 5000 | > 2500 | > 2500 | ♯ | < 800 | 
13 | CC(C)CC(CN(C)C)NC(=O)c1cccc(CN2OC(CO)C(C(C)O)C2C(=O)NC2CC3CC(C2C)C3(C)C)c1 (stereo not shown) [Compound 505] | > 5000 | > 2500 | > 2500 | ♯ | < 800 | 
14 | CC(O)C1C(CO)ON(Cc2cccc(CN(CCN(C)C)Cc3cccnc3)c2)C1C(=O)NC1CC2CC(C1C)C2(C)C (stereo not shown) [Compound 393] | > 5000 | > 2500 | > 2500 | ♯ | < 800 | 
15 | CC(C)CC(CN(C)C)N(Cc1ccccc1)Cc1cccc(CN2OC(CO)C(C(C)O)C2C(=O)NC2CC3CC(C2C)C3(C)C)c1 (stereo not shown) [Compound 435] | 2000 to 5000 |  | > 2500 | ♯ | < 800 | > 2500
16 | CC(O)C1C(CO)ON(Cc2cccc(CN(CCN(C)C)CC3=CCCCC3)c2)C1C(=O)NC1CC2CC(C1C)C2(C)C (stereo not shown) [Compound 354] | < 2000 | 1800 to 2500 | 1300 to 1800 | ♯ | < 800 | 
17 | CC(O)C1C(CO)ON(Cc2cccc(CN(CCN(C)C)Cc3ccccc3C(F)(F)F)c2)C1C(=O)NC1CC2CC(C1C)C2(C)C (stereo not shown) [Compound 357] | 2000 to 5000 | > 2500 | > 2500 | ♯ | < 800 | 
